# Results as given in publication PMC5740381 (Antimicrobial Agents and Chemotherapy, 2017).
# Read-outs that look alike come from different tables or passages of the source.
# What was measured:
# [1] = target: T1, GT1a H77 / 1a Wild type (Hepatitis C virus (isolate H77), UniProt P27958); assay: cell-based; design: species or system Huh-7; settings: SD, n = 3; read-out: HCV stable replicons in 0% human plasma, Mean EC50 ± SD
# T1 construct: in subgenomic replicon
# Source text: (§1) Five of these nine cell lines have been described previously, including those transfected with genotypes 1a H77, 1b Con1, 3a, 4a, and 6a ([28]). […] The genotype 2b and 6e NS3 sequences were each synthetically constructed based on a consensus sequence derived from the alignment of 15 genotype 2b and 4 genotype 6e sequences, respectively. All replicon constructs were bicistronic subgenomic replicons similar to those described by Bartenschlager and coworkers, and the replicon cell lines were generated by introducing these constructs into cells of an Huh-7 human hepatoma-derived cell line ([50]). The inhibitory effect of the PIs on HCV replication in replicon cells was determined in Dulbecco's modified Eagle medium containing 5% fetal bovine serum with or without 40% human plasma (Bioreclamation, Westbury, NY). The EC50s were determined using nonlinear regression curve fitting as described previously ([33]).
# [2] = target: T2, GT1b Con1 / 1b Wild type (Hepatitis C virus (isolate Con1), UniProt Q9WMX2); assay: cell-based; design: species or system Huh-7; settings: SD, n = 3; read-out: HCV stable replicons in 0% human plasma, Mean EC50 ± SD
# T2 construct: in subgenomic replicon
# Source text: as §1
# [3] = target: T1, GT1a H77 / 1a Wild type; assay: cell-based; design: species or system Huh-7; settings: SD, n = 3
# Experimental: (§2) Mutagenesis was performed using a Change-IT multiple-mutation site-directed mutagenesis kit (USB, Cleveland, OH) or by cloning a synthesized DNA fragment encoding the amino acid substitution(s). The genotype 1a and 1b replicon shuttle vectors used for the introduction of the substitutions of interest in the NS3, NS5A, or NS5B gene for transient-transfection assays have been described previously ([28], [33]). The replicon shuttle vectors used for the introduction of substitutions in NS3 genes from other genotypes were similar to the stable replicon cell line constructs described above, except for the absence of the neo gene. After mutagenesis, the plasmids were linearized and RNA was transcribed and then used to transfect Huh-7 cells. Inhibition of HCV replication by the HCV inhibitors was measured by luciferase assay, as described above. Replication efficiency was calculated as a percentage of wild-type replication, as described previously ([28]).
# [4] = target: T2, GT1b Con1 / 1b Wild type; assay: cell-based; design: species or system Huh-7; settings: SD, n = 3
# Experimental: as §2
# [5] = target: T3, 1a A156T (Hepatitis C virus (isolate H77), UniProt P27958, A1182T); assay: Luciferase assay of HCV replication in transient-transfection replicons with wild-type or substituted NS3 (at least 3 transfections).; type: cell-based, Huh-7; settings: SD, n = 3
# T3 construct: in transient replicon
# Experimental: as §2
# [6] = target: T4, 1a D168A (Hepatitis C virus (isolate H77), UniProt P27958, D1194A); assay: as above; type: cell-based, Huh-7; settings: SD, n = 3
# T4 construct: in transient replicon
# Experimental: as §2
# [7] = target: T5, 1a D168E (Hepatitis C virus (isolate H77), UniProt P27958, D1194E); assay: as above; type: cell-based, Huh-7; settings: SD, n = 3
# T5 construct: in transient replicon
# Experimental: as §2
# [8] = target: T6, 1a D168V (Hepatitis C virus (isolate H77), UniProt P27958, D1194V); assay: as above; type: cell-based, Huh-7; settings: SD, n = 3
# T6 construct: in transient replicon
# Experimental: as §2
# [9] = target: T7, 1a F43L (Hepatitis C virus (isolate H77), UniProt P27958, F1069L); assay: as above; type: cell-based, Huh-7; settings: SD, n = 3
# T7 construct: in transient replicon
# Experimental: as §2
# [10] = target: T8, 1a Q80K (Hepatitis C virus (isolate H77), UniProt P27958, Q1106K); assay: as above; type: cell-based, Huh-7; settings: SD, n = 3
# T8 construct: in transient replicon
# Experimental: as §2
# [11] = target: T9, 1a R155K (Hepatitis C virus (isolate H77), UniProt P27958, R1181K); assay: as above; type: cell-based, Huh-7; settings: SD, n = 3
# T9 construct: in transient replicon
# Experimental: as §2
# [12] = target: T10, 1a T54S (Hepatitis C virus (isolate H77), UniProt P27958, T1080S); assay: as above; type: cell-based, Huh-7; settings: SD, n = 3
# T10 construct: in transient replicon
# Experimental: as §2
# [13] = target: T11, 1a V36M (Hepatitis C virus (isolate H77), UniProt P27958, V1062M); assay: as above; type: cell-based, Huh-7; settings: SD, n = 3
# T11 construct: in transient replicon
# Experimental: as §2
# [14] = target: T12, 1a V55I (Hepatitis C virus (isolate H77), UniProt P27958, V1081I); assay: as above; type: cell-based, Huh-7; settings: SD, n = 3
# T12 construct: in transient replicon
# Experimental: as §2
# [15] = target: T13, 1a Y56H (Hepatitis C virus (isolate H77), UniProt P27958, Y1082H); assay: as above; type: cell-based, Huh-7; settings: SD, n = 3
# T13 construct: in transient replicon
# Experimental: as §2
# [16] = target: T14, 1b A156T (Hepatitis C virus (isolate Con1), UniProt Q9WMX2, A1182T); assay: as above; type: cell-based, Huh-7; settings: SD, n = 3
# T14 construct: in transient replicon
# Experimental: as §2
# [17] = target: T15, 1b A156V (Hepatitis C virus (isolate Con1), UniProt Q9WMX2, A1182V); assay: as above; type: cell-based, Huh-7; settings: SD, n = 3
# T15 construct: in transient replicon
# Experimental: as §2
# [18] = target: T16, 1b D168A (Hepatitis C virus (isolate Con1), UniProt Q9WMX2, D1194A); assay: as above; type: cell-based, Huh-7; settings: SD, n = 3
# T16 construct: in transient replicon
# Experimental: as §2
# [19] = target: T17, 1b D168E (Hepatitis C virus (isolate Con1), UniProt Q9WMX2, D1194E); assay: as above; type: cell-based, Huh-7; settings: SD, n = 3
# T17 construct: in transient replicon
# Experimental: as §2
# [20] = target: T18, 1b D168V (Hepatitis C virus (isolate Con1), UniProt Q9WMX2, D1194V); assay: as above; type: cell-based, Huh-7; settings: SD, n = 3
# T18 construct: in transient replicon
# Experimental: as §2
# [21] = target: T19, 1b R155K (Hepatitis C virus (isolate Con1), UniProt Q9WMX2, R1181K); assay: as above; type: cell-based, Huh-7; settings: SD, n = 3
# T19 construct: in transient replicon
# Experimental: as §2
# [22] = target: T20, 1b T54A (Hepatitis C virus (isolate Con1), UniProt Q9WMX2, T1080A); assay: as above; type: cell-based, Huh-7; settings: SD, n = 3
# T20 construct: in transient replicon
# Experimental: as §2
# [23] = target: T21, 1b V170A (Hepatitis C virus (isolate Con1), UniProt Q9WMX2, V1196A); assay: as above; type: cell-based, Huh-7; settings: SD, n = 3
# T21 construct: in transient replicon
# Experimental: as §2
# [24] = target: T22, 1b V55A (Hepatitis C virus (isolate Con1), UniProt Q9WMX2, V1081A); assay: as above; type: cell-based, Huh-7; settings: SD, n = 3
# T22 construct: in transient replicon
# Experimental: as §2
# [25] = target: T23, 2a A156T (Hepatitis C virus JFH-1, UniProt Q99IB8, A1186T); assay: as above; type: cell-based, Huh-7; settings: SD, n = 3
# T23 construct: in transient replicon
# Experimental: as §2
# [26] = target: T24, 2a A156V (Hepatitis C virus JFH-1, UniProt Q99IB8, A1186V); assay: as above; type: cell-based, Huh-7; settings: SD, n = 3
# T24 construct: in transient replicon
# Experimental: as §2
# [27] = target: T25, 2a D168A (Hepatitis C virus JFH-1, UniProt Q99IB8, D1198A); assay: as above; type: cell-based, Huh-7; settings: SD, n = 3
# T25 construct: in transient replicon
# Experimental: as §2
# [28] = target: T26, 2a D168E (Hepatitis C virus JFH-1, UniProt Q99IB8, D1198E); assay: as above; type: cell-based, Huh-7; settings: SD, n = 3
# T26 construct: in transient replicon
# Experimental: as §2
# [29] = target: T27, 2a D168V (Hepatitis C virus JFH-1, UniProt Q99IB8, D1198V); assay: as above; type: cell-based, Huh-7; settings: SD, n = 3
# T27 construct: in transient replicon
# Experimental: as §2
# [30] = target: T28, 5a D168E (Hepatitis C virus SA13, UniProt O91936, D1195E); assay: as above; type: cell-based, Huh-7; settings: SD, n = 3
# T28 construct: in genotype 2a JFH-1 chimeric transient replicon
# Experimental: as §2
# [31] = target: T29, 5a D168H (Hepatitis C virus SA13, UniProt O91936, D1195H); assay: as above; type: cell-based, Huh-7; settings: SD, n = 3
# T29 construct: in genotype 2a JFH-1 chimeric transient replicon
# Experimental: as §2
compound,measurement,setting,value
"Cc1cnc(C(=O)N[C@H]2CCCCC/C=C\[C@@H]3C[C@@]3(C(=O)NS(=O)(=O)C3CC3)NC(=O)[C@@H]3C[C@@H](Oc4nc5ccccc5c5ccccc45)CN3C2=O)cn1 [Paritaprevir, paritaprevir (ABT-450)]",EC50,[1],1 ± 0.33 nM
same,EC50,[2],0.21 ± 0.07 nM
same,EC50,[3],1.4 ± 0.4 nM
same,EC50,[4],0.11 ± 0.05 nM
same,EC50,[5],24 ± 3 nM
same,EC50,[6],70 ± 9 nM
same,EC50,[7],20 ± 0.7 nM
same,EC50,[8],135 ± 21 nM
same,EC50,[9],27 ± 12 nM
same,EC50,[10],3.9 ± 0.3 nM
same,EC50,[11],51 ± 8 nM
same,EC50,[12],0.54 ± 0.01 nM
same,EC50,[13],3 ± 0.3 nM
same,EC50,[14],1.4 ± 0.14 nM
same,EC50,[15],4.1 ± 1.1 nM
same,EC50,[16],0.81 ± 0.13 nM
same,EC50,[17],2.3 ± 0.53 nM
same,EC50,[18],3 ± 0.2 nM
same,EC50,[19],0.48 ± 0.05 nM
same,EC50,[20],17 ± 2 nM
same,EC50,[21],4.4 ± 0.1 nM
same,EC50,[22],0.09 ± 0.01 nM
same,EC50,[23],0.09 ± 0.03 nM
same,EC50,[24],0.07 ± 0.001 nM
same,EC50,[25],29 ± 2.8 nM
same,EC50,[26],37 ± 1.2 nM
same,EC50,[27],306 ± 34 nM
same,EC50,[28],89 ± 15 nM
same,EC50,[29],228 ± 32 nM
same,EC50,[30],7.7 ± 1.7 nM
same,EC50,[31],184 ± 65 nM
